pIC50: −log10 of the molar value.
Test system: 485368-065-R4-J2-PDC spheroids with HUVEC/MSC, viability
Assay: Anticancer human tumor 485368-065-R4-J2-PDC patient-derived pancreatic carcinoma cell line growth inhibition [CLK]
Settings: for pIC50: curve of first compound; for viability, T/C: stronger effect = lower value
Description: A high-throughput screen of multi-cell type tumor spheroids was designed to identify active combinations of […] and targeted small molecules. Complex spheroids include a stromal component modeled by human endothelial cells (HUVEC) and fibroblasts modeled by human mesenchymal stem cells (MSCs). The concentration ranges selected for each drug and investigational agent were based upon clinically achievable concentrations if the clinical Cmax of the agent was known.
Compounds. The drugs and investigational agents: cirtuvivint (SM08502; NSC835563), CC-671 (NSC850746), vemurafenib (NSC761431), tapotoclax (NSC804041), sotorasib (NSC818433), adagrasib (NSC831453), MRTX-1133 (NSC836407), BAY2416964 (NSC825713), copanlisib (NSC816437), inavolisib (NSC800729), abemaciclib (NSC768073), osimertinib (NSC779217), entinostat (NSC756642), eltanexor (KPT-8602, NSC794443), venetoclax (NSC766270), ceralasertib (NSC777638), bortezomib (NSC756655), olaparib (NSC753686), talazoparib (NSC767125), alisertib (NSC759677), peposertib (NSC802822), gemcitabine (NSC613327), 5-fluorouracil (NSC19893), SN-38 (NSC673596), oxaliplatin (NSC266046), paclitaxel (NSC125973), and doxorubicin (NSC123127), were obtained from the National Cancer Institute (NCI) Developmental Therapeutics Program Chemical Repository. The FDA-approved anticancer drug set is available from the Developmental Therapeutics Program at https://dtp.cancer.gov/organization/dscb/obtaining/available plates.htm. […] The stock solutions were prepared in dimethyl sulfoxide (DMSO, Sigma-Aldrich, St. Louis, MO, cat. D2650), except for the platinum complexes which were prepared in saline (Quality Biological, Gaithersburg, MD, cat. 114-055-101), at 800-fold the tested concentration and stored at -70 degrees C prior to their use. All drugs and investigational agents were tested over a range starting from a high concentration at or near the clinical Cmax and decreasing in half-log increments. If the clinical Cmax for an agent had not been determined, the highest concentration tested was 10 microM.
Cell Culture. All cells were maintained in an incubator at 37 degrees C and 5% CO2 with 95% humidity. The PDC lines were cultured according to standard operating procedures established by the NCI PDMR. Briefly, all PDCs were thawed and cultured in Matrigel-coated flasks prepared with a working solution of 1X Ham's F-12 nutrient mix, without supplementation (Invitrogen, Waltham, MA, cat. 11765054), 100 U/mL penicillin-streptomycin (Invitrogen, cat. 15140122), and 2.5% Matrigel (Corning Inc., Corning, NY, cat. 354248) for the first three passages. The 947758-054-R-J2-PDC line was cultured in 6B/Colon 1A media, which includes advanced DMEM/F-12 (Thermo Fisher Scientific, cat. 12634028), 10 mM HEPES (Thermo Fisher Scientific, cat. 15630080), 1X GlutaMAX supplement (Thermo Fisher Scientific, cat. 35050061), 0.1 mg/mL primocin (InvivoGen, cat. ant-pm-2), 10% defined fetal bovine serum, heat inactivated (HyClone Laboratories Inc., cat. SH30070.03HI), 1.25 mM N-Acetyl-L-cysteine (Sigma-Aldrich, cat. A9165), 10 mM nicotinamide (Sigma-Aldrich, cat. N0636), 1X B-27 supplement (Thermo Fisher Scientific, cat. 17504044), 1X N-2 supplement (Thermo Fisher Scientific, cat. 17502048), and 10 microM Y-27632 dihydrochloride (Tocris Bioscience, cat. 1254). The 876862-298-R-J1-PDC was cultured in 6E media, which includes all 6B/Colon 1A media components plus 50% L-WRN conditioned media (ATCC, cat. CRL-3276), 50 ng/mL recombinant human EGF recombinant protein (hEGF; Thermo Fisher Scientific, cat. PHG0311), 10 ng/mL recombinant human fibroblast growth factor 10 (hGFG-10; PeproTech, cat. 100-26), 1 ng/mL recombinant human fibroblast growth factor 2 (hFGF-2; PeproTech, cat. 100-18B), and 1 µM prostaglandin E2 (PGE2; Tocris, cat. 2296). The 227483-062-R1-J1-PDC line was cultured in Panc media, containing all 6E components except hFGF-2, with the addition of 500 nM SB-431542 (Selleckchem, cat. S1067) and 10 nM gastrin (Tocris, cat. 3006). […]
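Note: spheroids exposed to compounds for seven days.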
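Throughout, for viability, T/C: 100% = DMSO vehicle control wells.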

Question: COC1C=CCC(C)C(C)S(=O)(=O)NC(=O)c2ccc3c(c2)N(CC2CCC21)CC1(CCCc2cc(Cl)ccc21)CO3 (configuration not stated) + CN1CCN(c2cc(C(=O)Nc3cc4cc(-c5cnn(C)c5)ccc4cn3)ccn2)CC1 was tested. Which pIC50 (second compound 0.0316 µM) did it give?
Answer: < 5.00

Question: What about the pIC50 (second compound 0.1 µM) of the same molecule?
Answer: < 5.00

Question: And the pIC50 (second compound 0.316 µM)?
Answer: < 5.00

Question: What about the pIC50 (second compound 1 µM) of the same molecule?
Answer: > 7.50

Question: What about the pIC50 (second compound 3.16 µM) of the same molecule?
Answer: > 7.50

Question: And the pIC50 (second compound 10 µM)?
Answer: > 7.50

Question: What about the viability, T/C (second compound 0.0316 µM, first compound 0.0316 µM) of the same molecule?
Answer: 105%

Question: And the viability, T/C (second compound 0.0316 µM, first compound 0.1 µM)?
Answer: 106%

Question: And the viability, T/C (second compound 0.0316 µM, first compound 0.316 µM)?
Answer: 106%

Question: What about the viability, T/C (second compound 0.0316 µM, first compound 1 µM) of the same molecule?
Answer: 113%

Question: And the viability, T/C (second compound 0.0316 µM, first compound 3.16 µM)?
Answer: 104%

Question: And the viability, T/C (second compound 0.0316 µM, first compound 10 µM)?
Answer: 91.6%

Question: And the viability, T/C (second compound 0.1 µM, first compound 0.0316 µM)?
Answer: 117%

Question: And the viability, T/C (second compound 0.1 µM, first compound 0.1 µM)?
Answer: 124%

Question: What about the viability, T/C (second compound 0.1 µM, first compound 0.316 µM) of the same molecule?
Answer: 107%

Question: What about the viability, T/C (second compound 0.1 µM, first compound 1 µM) of the same molecule?
Answer: 114%

Question: And the viability, T/C (second compound 0.1 µM, first compound 3.16 µM)?
Answer: 108%

Question: And the viability, T/C (second compound 0.1 µM, first compound 10 µM)?
Answer: 90.8%

Question: And the viability, T/C (second compound 0.316 µM, first compound 0.0316 µM)?
Answer: 84%

Question: What about the viability, T/C (second compound 0.316 µM, first compound 0.1 µM) of the same molecule?
Answer: 86%

Question: And the viability, T/C (second compound 0.316 µM, first compound 0.316 µM)?
Answer: 87.2%

Question: What about the viability, T/C (second compound 0.316 µM, first compound 1 µM) of the same molecule?
Answer: 78.6%

Question: And the viability, T/C (second compound 0.316 µM, first compound 3.16 µM)?
Answer: 81.8%

Question: And the viability, T/C (second compound 0.316 µM, first compound 10 µM)?
Answer: 63.5%

Question: What about the viability, T/C (second compound 1 µM, first compound 0.0316 µM) of the same molecule?
Answer: 1.08%

Question: And the viability, T/C (second compound 1 µM, first compound 0.1 µM)?
Answer: 2.18%

Question: And the viability, T/C (second compound 1 µM, first compound 0.316 µM)?
Answer: 2.96%

Question: What about the viability, T/C (second compound 1 µM, first compound 1 µM) of the same molecule?
Answer: 2.24%

Question: And the viability, T/C (second compound 1 µM, first compound 3.16 µM)?
Answer: 1.88%

Question: What about the viability, T/C (second compound 1 µM, first compound 10 µM) of the same molecule?
Answer: 6.49%

Question: What about the viability, T/C (second compound 3.16 µM, first compound 0.0316 µM) of the same molecule?
Answer: 1.15%

Question: What about the viability, T/C (second compound 3.16 µM, first compound 0.1 µM) of the same molecule?
Answer: 3.34%

Question: What about the viability, T/C (second compound 3.16 µM, first compound 0.316 µM) of the same molecule?
Answer: 1.27%

Question: And the viability, T/C (second compound 3.16 µM, first compound 1 µM)?
Answer: 2.24%

Question: What about the viability, T/C (second compound 3.16 µM, first compound 3.16 µM) of the same molecule?
Answer: 2.02%

Question: And the viability, T/C (second compound 3.16 µM, first compound 10 µM)?
Answer: 4.8%

Question: What about the viability, T/C (second compound 10 µM, first compound 0.0316 µM) of the same molecule?
Answer: 2.15%

Question: And the viability, T/C (second compound 10 µM, first compound 0.1 µM)?
Answer: 4.22%

Question: What about the viability, T/C (second compound 10 µM, first compound 0.316 µM) of the same molecule?
Answer: 1.64%

Question: What about the viability, T/C (second compound 10 µM, first compound 1 µM) of the same molecule?
Answer: 3.68%

Question: And the viability, T/C (second compound 10 µM, first compound 3.16 µM)?
Answer: 2.18%

Question: And the viability, T/C (second compound 10 µM, first compound 10 µM)?
Answer: 2.71%
